pIC50: −log10 of the molar value. The source made the active and inactive calls. No cut-off for these calls is given here.
How the values were obtained:
Histone deacetylase 1 [1] = biological target: T1, Histone deacetylase 1 (Homo sapiens, UniProt Q13547); experiment: Inhibition of purified human HDAC1 using Ac-Leu-Gly-(e-Ac)Lys-AMC by fluorometric HDAC assay
[2] = Inhibition of purified human HDAC2 using Ac-Leu-Gly-(e-Ac)Lys-AMC by fluorometric HDAC assay
Androgen receptor = biological target: T2, Androgen receptor (Homo sapiens, UniProt P10275); experiment: Anti-androgenic activity at androgen receptor (unknown origin) expressed in HEK293 cells by BRET assay; assay type: cell-based
T2 sequence (P10275 whole entry): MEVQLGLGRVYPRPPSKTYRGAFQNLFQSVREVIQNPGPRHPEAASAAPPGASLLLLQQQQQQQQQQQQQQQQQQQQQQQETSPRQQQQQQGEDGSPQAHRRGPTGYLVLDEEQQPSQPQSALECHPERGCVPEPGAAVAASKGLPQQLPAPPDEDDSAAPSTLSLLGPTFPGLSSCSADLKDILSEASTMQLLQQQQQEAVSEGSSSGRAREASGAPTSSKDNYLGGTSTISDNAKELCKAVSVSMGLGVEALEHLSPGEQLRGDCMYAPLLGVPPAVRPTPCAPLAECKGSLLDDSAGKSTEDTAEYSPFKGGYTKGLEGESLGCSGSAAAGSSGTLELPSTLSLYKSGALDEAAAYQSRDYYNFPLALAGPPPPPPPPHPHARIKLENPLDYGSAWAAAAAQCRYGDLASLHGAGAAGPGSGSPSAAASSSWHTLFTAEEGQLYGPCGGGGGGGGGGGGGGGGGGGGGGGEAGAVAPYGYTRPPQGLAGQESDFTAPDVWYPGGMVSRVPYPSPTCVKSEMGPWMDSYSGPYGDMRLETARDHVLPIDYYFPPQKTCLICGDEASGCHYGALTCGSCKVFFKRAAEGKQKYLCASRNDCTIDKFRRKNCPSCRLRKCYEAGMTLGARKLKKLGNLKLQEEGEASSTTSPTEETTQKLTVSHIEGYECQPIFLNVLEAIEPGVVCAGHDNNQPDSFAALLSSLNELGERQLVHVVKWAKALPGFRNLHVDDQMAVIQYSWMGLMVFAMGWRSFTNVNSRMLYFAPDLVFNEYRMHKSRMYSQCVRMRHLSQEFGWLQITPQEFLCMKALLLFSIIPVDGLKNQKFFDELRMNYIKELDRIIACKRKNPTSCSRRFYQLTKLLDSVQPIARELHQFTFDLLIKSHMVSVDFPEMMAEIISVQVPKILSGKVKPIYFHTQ

[3] = Antiproliferative activity against human BHPrS cells assessed as reduction in cell viability at 1 to 100 uM incubated for 72 hrs; assay type: toxicity, cell-based; conditions: dose 1-100 µM
BPH-1 = experiment: Antiproliferative activity against human BPH-1 cells assessed as reduction in cell viability at 1 to 100 uM incubated for 72 hrs; assay type: functional, cell-based; conditions: dose 1-100 µM
PC-3 = experiment: Antiproliferative activity against human PC-3 cells assessed as reduction in cell viability at 1 to 100 uM incubated for 72 hrs; assay type: functional, cell-based; conditions: dose 1-100 µM
LNCaP [4] = experiment: Antiproliferative activity against human LNCAP cells assessed as reduction in cell viability at 10 uM incubated for 72 hrs; assay type: functional, cell-based
LNCaP [5] = experiment: Antiproliferative activity against human LNCAP cells assessed as reduction in cell viability at 100 uM incubated for 72 hrs; assay type: functional, cell-based
LNCaP [6] = experiment: Antiproliferative activity against human LNCAP cells assessed as reduction in cell viability at 100 uM incubated for 5 days; assay type: functional, cell-based; conditions: time 5.0 day
[7] = biological target: Class 1 histone deacetylase (Homo sapiens) (UniProt Q13547+O15379+Q92769+Q9BY41); experiment: Inhibition of type I nuclear HDACs in human LNCaP cells assessed as induction of histone H3 and H4 acetylation at 10 uM by Western blotting; assay type: cell-based
LNCaP [8] = experiment: Antiproliferative activity against human LNCAP cells assessed as reduction in cell viability at 10 uM incubated for 5 days; assay type: functional, cell-based; conditions: time 5.0 day
Histone deacetylase 1 [9] = biological target: T1, Histone deacetylase 1; experiment: Inhibition of purified human HDAC1 using Ac-Leu-Gly-(e-Ac)Lys-AMC pre-incubated for 18 hrs by fluorometric HDAC assay

T1 sequence (Q13547 whole entry): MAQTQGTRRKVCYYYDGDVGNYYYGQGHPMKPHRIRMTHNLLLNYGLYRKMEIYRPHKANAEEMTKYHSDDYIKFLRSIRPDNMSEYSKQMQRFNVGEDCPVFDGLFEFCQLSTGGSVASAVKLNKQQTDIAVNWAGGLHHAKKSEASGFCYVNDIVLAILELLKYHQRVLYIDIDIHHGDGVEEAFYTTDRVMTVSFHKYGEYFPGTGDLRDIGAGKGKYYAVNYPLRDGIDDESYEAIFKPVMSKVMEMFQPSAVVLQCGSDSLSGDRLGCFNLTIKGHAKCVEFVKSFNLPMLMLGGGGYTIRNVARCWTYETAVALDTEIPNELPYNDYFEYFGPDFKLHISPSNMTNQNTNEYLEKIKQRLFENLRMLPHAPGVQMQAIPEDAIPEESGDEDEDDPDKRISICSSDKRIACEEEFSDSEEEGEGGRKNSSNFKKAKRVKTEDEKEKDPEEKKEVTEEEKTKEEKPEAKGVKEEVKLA
Sequence of Class 1 histone deacetylase (Homo sapiens) (O15379 whole entry, looked up): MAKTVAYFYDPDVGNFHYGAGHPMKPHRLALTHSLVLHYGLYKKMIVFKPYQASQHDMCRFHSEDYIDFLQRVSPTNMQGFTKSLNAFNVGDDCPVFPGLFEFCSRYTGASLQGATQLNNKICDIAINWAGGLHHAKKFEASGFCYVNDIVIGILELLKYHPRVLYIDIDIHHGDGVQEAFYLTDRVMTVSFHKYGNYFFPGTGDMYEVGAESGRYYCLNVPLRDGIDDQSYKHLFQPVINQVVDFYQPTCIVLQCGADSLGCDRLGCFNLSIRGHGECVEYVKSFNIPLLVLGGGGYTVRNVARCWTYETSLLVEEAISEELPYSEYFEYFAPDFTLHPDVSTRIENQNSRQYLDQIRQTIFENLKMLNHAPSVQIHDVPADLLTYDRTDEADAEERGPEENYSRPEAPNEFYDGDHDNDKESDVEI
Sequence of Class 1 histone deacetylase (Homo sapiens) (Q13547 whole entry, looked up): as the sequence (Q13547 whole entry) above
Sequence of Class 1 histone deacetylase (Homo sapiens) (Q92769 whole entry, looked up): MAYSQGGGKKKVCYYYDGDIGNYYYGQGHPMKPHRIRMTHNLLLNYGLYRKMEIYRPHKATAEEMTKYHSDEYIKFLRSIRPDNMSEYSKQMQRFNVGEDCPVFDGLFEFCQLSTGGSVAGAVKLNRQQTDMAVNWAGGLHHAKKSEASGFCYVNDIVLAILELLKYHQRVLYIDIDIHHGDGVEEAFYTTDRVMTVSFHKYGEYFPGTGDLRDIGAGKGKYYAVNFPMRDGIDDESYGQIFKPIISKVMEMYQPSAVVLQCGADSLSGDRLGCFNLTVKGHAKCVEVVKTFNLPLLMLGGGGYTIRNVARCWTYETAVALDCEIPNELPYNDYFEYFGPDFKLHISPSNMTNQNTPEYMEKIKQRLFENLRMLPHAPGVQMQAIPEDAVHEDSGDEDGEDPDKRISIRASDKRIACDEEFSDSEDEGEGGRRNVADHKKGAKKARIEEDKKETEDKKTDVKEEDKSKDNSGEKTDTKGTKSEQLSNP
Sequence of Class 1 histone deacetylase (Homo sapiens) (Q9BY41 whole entry, looked up): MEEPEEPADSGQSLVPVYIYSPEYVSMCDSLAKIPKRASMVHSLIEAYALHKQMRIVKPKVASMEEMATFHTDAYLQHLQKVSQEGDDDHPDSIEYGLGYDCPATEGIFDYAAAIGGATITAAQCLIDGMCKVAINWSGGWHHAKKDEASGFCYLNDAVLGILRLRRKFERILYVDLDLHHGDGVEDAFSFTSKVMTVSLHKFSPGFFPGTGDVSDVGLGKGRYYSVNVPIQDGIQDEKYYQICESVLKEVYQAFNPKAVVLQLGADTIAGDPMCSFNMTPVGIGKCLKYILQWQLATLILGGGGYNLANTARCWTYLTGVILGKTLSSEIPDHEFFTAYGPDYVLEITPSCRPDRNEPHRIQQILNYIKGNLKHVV

Structure (SMILES)	pIC50 (Histone deacetylase 1 [1])	pIC50 (Androgen receptor)	Activity (LNCaP [6])	other results
CC1(C)C(=O)N(c2ccc(C#N)c(C(F)(F)F)c2)C(=S)N1c1ccc(C(=O)Nc2ccccc2N)c(F)c1	5.54	5.77		pIC50 [2]: 5.60
CC1(C)C(=O)N(c2ccc(C#N)c(C(F)(F)F)c2)C(=S)N1C12CC(CC(=O)Nc3ccccc3N)(C1)C2	< 3.00	6.72		
CC1(C)C(=O)N(c2ccc(C#N)c(C(F)(F)F)c2)C(=S)N1Cc1ccc(C(=O)Nc2ccccc2N)cc1	5.98	6.55		Activity [3]: Non-Toxic; Activity (BPH-1): Active; Activity (PC-3): Active; pIC50 [2]: 5.80; Activity (LNCaP [4]): Active; Activity (LNCaP [5]): Active
CC1(C)C(=O)N(c2ccc(C#N)c(C(F)(F)F)c2)C(=S)N1CCCCCC(=O)NO	5.88	5.84	Active	
CC1(C)C(=O)N(c2ccc(C#N)c(C(F)(F)F)c2)C(=S)N1c1ccc(C(=O)Nc2cc(-c3cccs3)ccc2N)cn1	4.95	< 5.00		
CC1(C)C(=O)N(c2ccc(C#N)c(C(F)(F)F)c2)C(=S)N1c1ccc(C(=O)Nc2ccccc2N)nc1	5.25	6.12		
Nc1ccccc1NC(=O)c1ccc(CNC(=O)OCc2cccnc2)cc1 [ENTINOSTAT]		< 5.00	Active	
CC1(C)C(=O)N(c2ccc(C#N)c(C(F)(F)F)c2)C(=S)N1c1ccc(C(=O)Nc2cc(-c3cccs3)ccc2N)nc1	5.44	< 5.00		
CC1(C)C(=O)N(c2ccc(C#N)c(C(F)(F)F)c2)C(=S)N1CCCCC(=O)NO	5.51	5.93	Active	
CC1(C)C(=O)N(c2ccc(C#N)c(C(F)(F)F)c2)C(=S)N1c1ccc(C(=O)Nc2ccccc2N)cn1	5.19	5.63		
CC1(C)C(=O)N(c2ccc(C#N)c(C(F)(F)F)c2)C(=S)N1c1ccc(C(=O)Nc2ccccc2N)cc1	5.88	6.01	Active	Activity [3]: Non-Toxic; Activity (BPH-1): Active; Activity (PC-3): Active; Activity (LNCaP [4]): Active; inhibition [7]: Active; Activity (LNCaP [5]): Active; Activity (LNCaP [8]): Active
CC1(C)C(=O)N(c2ccc(C#N)c(C(F)(F)F)c2)C(=S)N1c1ccc(C(=O)Nc2cc(-c3ccccc3)ccc2N)cn1	5.62	< 5.00		
CC1(C)C(=O)N(c2ccc(C#N)c(C(F)(F)F)c2)C(=S)N1CCCC(=O)NO	4.35	6.41	Active	
CC1(C)C(=O)N(c2ccc(C#N)c(C(F)(F)F)c2)C(=S)N1c1ccc(C(=O)Nc2cc(-c3ccccc3)ccc2N)nc1	< 3.00	< 5.00		
CC1(C)C(=O)N(c2ccc(C#N)c(C(F)(F)F)c2)C(=S)N1c1ccc(C(=O)Nc2cc(-c3ccccc3)ccc2N)cc1		< 5.00		pIC50 (Histone deacetylase 1 [9]): 5.22
CC1(C)C(=O)N(c2ccc(C#N)c(C(F)(F)F)c2)C(=S)N1CCCCCCC(=O)NO	6.00	6.41	Active	
